Measured values from the supplement of paper PMC10307832.

What was measured:
Test in all cases: relative viability (nuclei count vs DMSO), 5 days (fraction); higher = more cells survive
[1] = compound: C1/C(=C\C2=CC=CS2)/C(=O)/C(=C/C3=CC=CS3)/C1 + C[C@@H](Oc1cc(-c2cnn(C3CCNCC3)c2)cnc1N)c1c(Cl)ccc(F)c1Cl [Crizotinib] (partner 1 µM)
In short: (§1)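 The day after seeding in 1536-well plates, lung cancer cell lines were treated by pin tool with a single drug, or with a fixed anchor-drug dose together with five library-drug doses (not always all listed) in √10 steps. After 5 days, a combined fix-and-stain solution (final 0.05% Triton X-100, 1% formaldehyde, 1 ug/ml Hoechst) was added. Nuclei counted on 4× images gave relative viability as treated counts over vehicle counts, reported as the median of duplicate plates.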

[2] = compound: C1/C(=C\C2=CC=CS2)/C(=O)/C(=C/C3=CC=CS3)/C1 + C[C@]1(O)C[C@@H](c2nc(-c3ccc4ccc(-c5ccccc5)nc4c3)c3c(N)nccn32)C1 [Linsitinib] (partner 1 µM)
In short: as §1

[3] = compound: C1/C(=C\C2=CC=CS2)/C(=O)/C(=C/C3=CC=CS3)/C1 + Cc1nc(NC(=O)N2CCC[C@H]2C(N)=O)sc1-c1ccnc(C(C)(C)C(F)(F)F)c1 [Alpelisib] (partner 2 µM)
In short: as §1

[4] = compound: C1/C(=C\C2=CC=CS2)/C(=O)/C(=C/C3=CC=CS3)/C1 + O=C(c1cc(Cc2n[nH]c(=O)c3ccccc23)ccc1F)N1CCN(C(=O)C2CC2)CC1 [Olaparib] (partner 8 µM)
In short: as §1

Cell Line | relative viability ([1]; first compound 0.2 µM) | relative viability ([1]; first compound 0.6325 µM) | relative viability ([1]; first compound 2 µM) | relative viability ([1]; first compound 6.325 µM) | relative viability ([1]; first compound 20 µM) | relative viability ([2]; first compound 0.2 µM) | relative viability ([2]; first compound 0.6325 µM) | relative viability ([2]; first compound 2 µM) | relative viability ([2]; first compound 6.325 µM) | relative viability ([2]; first compound 20 µM) | relative viability ([3]; first compound 0.2 µM) | relative viability ([3]; first compound 0.6325 µM) | relative viability ([3]; first compound 2 µM) | relative viability ([3]; first compound 6.325 µM) | relative viability ([3]; first compound 20 µM) | relative viability ([4]; first compound 0.2 µM) | relative viability ([4]; first compound 0.6325 µM) | relative viability ([4]; first compound 2 µM) | relative viability ([4]; first compound 6.325 µM) | relative viability ([4]; first compound 20 µM)
LU99A | 0.539 | 0.665 | 0.625 | 0.466 | 0.562 | 0.535 | 0.497 | 0.574 | 0.353 | 0.61 | 0.499 | 0.547 | 0.545 | 0.476 | 0.454 | 0.225 | 0.255 | 0.279 | 0.222 | 0.234
LXF-289 | 0.811 | 0.835 | 0.767 | 0.709 | 0.821 | 0.981 | 1.03 | 0.922 | 0.912 | 0.984 | 1.02 | 1.08 | 1.05 | 0.974 | 1.04 | 1.06 | 1.07 | 1.06 | 0.936 | 1.02
NCI-H23 | 0.411 | 0.627 | 0.661 | 0.527 | 0.511 | 0.584 | 0.51 | 0.67 | 0.437 | 0.643 | 0.705 | 0.899 | 0.706 | 0.483 | 0.742 | 0.398 | 0.324 | 0.301 | 0.382 | 0.309
NCI-H322M | 0.876 | 1.03 | 0.98 | 0.743 | 0.922 | 0.995 | 0.909 | 1.11 | 0.81 | 0.845 | 0.739 | 0.833 | 0.832 | 0.666 | 0.708 | 0.827 | 0.776 | 0.822 | 0.783 | 0.762
NCI-H358 | 0.623 | 0.661 | 0.599 | 0.438 | 0.693 | 0.887 | 0.757 | 0.821 | 0.644 | 0.809 | 1.11 | 0.799 | 0.861 | 0.668 | 0.88 | 0.862 | 0.715 | 0.657 | 0.443 | 0.492
NCI-H441 | 0.967 | 0.786 | 1.06 | 0.729 | 0.604 | 0.627 | 0.692 | 0.664 | 0.547 | 0.583 | 0.819 | 0.832 | 0.719 | 0.578 | 0.737 | 0.556 | 0.493 | 0.532 | 0.404 | 0.569
NCI-H460 | 0.813 | 1.17 | 0.958 |  | 0.835 | 0.838 | 0.976 | 0.694 |  | 0.728 | 0.491 | 0.576 | 0.601 |  | 0.463 | 0.548 | 0.455 | 0.503 | 0.398 | 0.449
NCI-H520 | 0.882 | 0.966 | 0.715 | 0.655 | 0.751 | 0.953 | 1.09 | 0.941 | 1.02 | 0.795 | 0.927 | 0.847 | 0.928 | 0.82 | 0.835 | 0.316 | 0.34 | 0.324 |  | 0.35
NCI-H596 | 1.09 | 0.975 | 1.04 | 0.981 | 0.949 | 1.15 | 1.04 | 1.02 | 1.01 | 1.04 | 0.56 | 0.467 | 0.522 | 0.467 | 0.389 | 0.674 | 0.727 | 0.767 | 0.596 | 0.665
NCI-H647 | 1.2 | 1.1 | 1.12 | 0.992 | 1 | 1.27 | 1.36 | 1.03 | 0.969 | 1.17 | 1.14 | 1.32 | 1.08 | 1 | 1.13 | 0.776 | 0.482 | 0.433 | 0.501 | 0.573
NCI-H650 | 0.658 | 0.921 | 0.632 | 0.893 | 0.768 | 0.96 | 0.86 | 0.896 | 0.903 | 0.803 | 1.2 | 1.19 | 1.19 | 0.935 | 1.05 | 0.575 | 0.425 | 0.376 | 0.378 | 0.423
NCI-H661 | 1.02 | 0.986 | 0.948 | 0.947 | 1.02 | 0.692 | 0.465 | 0.508 | 0.559 | 0.48 | 0.611 | 0.792 | 0.838 | 0.515 | 0.7 | 0.757 | 0.76 | 0.712 | 0.614 | 0.81
NCI-H727 | 0.885 | 0.779 | 0.755 | 0.745 | 0.762 | 0.263 | 0.302 | 0.314 | 0.228 | 0.263 | 0.578 | 0.532 | 0.616 | 0.507 | 0.567 | 0.803 | 0.627 | 0.755 |  | 0.697
NCI-H838 | 0.896 | 0.889 | 0.807 | 0.784 | 0.858 | 1.12 | 0.979 | 0.955 | 0.8 | 0.94 | 1.03 | 0.986 | 0.939 | 0.848 | 0.974 | 0.779 | 0.752 | 0.704 | 0.714 | 0.739
NCI-H1299 | 0.958 | 0.976 | 0.928 | 0.903 | 0.589 | 1.02 | 1.04 | 0.933 | 0.789 | 0.956 | 1.04 | 1.08 | 1.03 | 0.948 | 1.04 | 1.01 | 0.969 | 0.953 | 0.817 | 0.962
NCI-H1355 | 1.19 | 1.05 | 1.03 | 0.943 | 1.08 | 0.906 | 0.744 | 0.863 | 0.666 | 0.758 | 0.794 | 0.722 | 0.758 | 0.72 | 0.804 | 0.742 | 0.76 | 0.727 | 0.657 | 0.736
